{
  "source": "patent US20230310615A1",
  "about": "“OPHTHALMIC COMPOSITIONS” (Alcon Inc., priority 2022, published 2023)",
  "origin": "cited, not measured here",
  "settings": "dissociation constant of the dibasic compound",
  "data": [
    {"smiles": "OCC(CO)(CO)NCCCNC(CO)(CO)CO", "note": "[bis-TRIS-propane, 1,3-bis(tris[hydroxymethyl]methylamino)propane]", "values": [
      {"measurement": "pKa1", "value": 6.8},
      {"measurement": "pKa2", "value": 9.5}
    ]}
  ]
}
